The experiment addresses TARP γ8 dependent AMPA receptor (GRIA1o-CACNG8 fusion construct) (Homo sapiens (Human), UniProt P42261+Q8WXS5). The experiment is described as follows: Calcium flux assay (FLIPR), inhibition of glutamate response of GluA1o-γ8 channel. To be noted: HEK293 cells stably expressing GRIA1o-CACNG8 fusion; calcium flux after 15 μM glutamate; negative log of the IC50 in molar. In kind it is cell-based. From the text: This assay was used to test compounds for their ability to inhibit TARP γ8 dependent AMPA receptor activity. The AMPA receptor is a non-selective cation channel activated by glutamate. […] But, this desensitization is incomplete, and a substantial steady-state current remains in the sustained presence of glutamate (Cho et al. (2007). “Two families of TARP isoforms that have distinct effects on the kinetic properties of AMPA receptors and synaptic currents.” Neuron 55(6): 890-904).
An in vitro assay was used to determine the potency of test compounds as inhibitors of the glutamate response of the channel formed by GluA10-γ8. To ensure a 1:1 stoichiometry of GluA1o and γ8 subunits in the expressed channel, a fusion of the cDNAs for GRIA1o and CACNG8 was used. Following Shi et al (2009) “The stoichiometry of AMPA receptors and TARPs varies by neuronal cell type.” Neuron 62(5): 633-640), the C-terminus of the cDNA for GRIA1o was fused to the N-terminus of the cDNA for γ8. The linker sequence was […]. Channels expressed with this construct appear to have similar properties to channels formed by co-expression of GRIA1o with an excess of CACNG8 (Shi et al. 2009). A clonal cell line in HEK293 cells stably expressing this construct, with a geneticin selection marker, was generated for use in this assay.
Cell expressing the GRIA1o-CACNG8 fusion construct were grown in a monolayer in 96- or 384-well microtiter plates. They were washed with assay buffer (135 mM NaCl, 4 mM KCl, 3 mM CaCl2, 1 mM MgCl2, 5 mM glucose, 10 mM HEPES, pH 7.4, 300 mOs) using a Biotek EL405 plate washer. The cells were then loaded with a calcium-sensitive dye (Calcium-5 or Calcium-6, Molecular Devices) and the test compounds at a range of concentrations. Calcium flux following the addition of 15 μM glutamate was monitored using a Molecular Devices FLIPR Tetra.
The fluorescence in each well was normalized to the fluorescence of negative and positive control wells. The negative control wells had no added compounds, and the positive control wells had been incubated with 10 μM CP465022 (a non-subtype-selective AMPA receptor antagonist) (Lazzaro et al. (2002). “Functional characterization of CP-465,022, a selective, noncompetitive AMPA receptor antagonist.” Neuropharmacology 42(2): 143-153). The responses to glutamate as functions of the test compound concentrations were fitted to a four-parameter logistic function. The fitted parameter corresponding to the midpoint was taken to be the potency of inhibition of the compound. The data in Table 4 below illustrates the observed potency for the compounds described herein. pIC50 refers to the negative log of the IC50 in molar.
On the technique in general: Calcium flux is commonly read through the fluorescence of an indicator in the cells.

TARP γ8 dependent AMPA receptor (GRIA1o-CACNG8 fusion construct), sequence (P42261 other isoform, or with tags, fused parts or gaps): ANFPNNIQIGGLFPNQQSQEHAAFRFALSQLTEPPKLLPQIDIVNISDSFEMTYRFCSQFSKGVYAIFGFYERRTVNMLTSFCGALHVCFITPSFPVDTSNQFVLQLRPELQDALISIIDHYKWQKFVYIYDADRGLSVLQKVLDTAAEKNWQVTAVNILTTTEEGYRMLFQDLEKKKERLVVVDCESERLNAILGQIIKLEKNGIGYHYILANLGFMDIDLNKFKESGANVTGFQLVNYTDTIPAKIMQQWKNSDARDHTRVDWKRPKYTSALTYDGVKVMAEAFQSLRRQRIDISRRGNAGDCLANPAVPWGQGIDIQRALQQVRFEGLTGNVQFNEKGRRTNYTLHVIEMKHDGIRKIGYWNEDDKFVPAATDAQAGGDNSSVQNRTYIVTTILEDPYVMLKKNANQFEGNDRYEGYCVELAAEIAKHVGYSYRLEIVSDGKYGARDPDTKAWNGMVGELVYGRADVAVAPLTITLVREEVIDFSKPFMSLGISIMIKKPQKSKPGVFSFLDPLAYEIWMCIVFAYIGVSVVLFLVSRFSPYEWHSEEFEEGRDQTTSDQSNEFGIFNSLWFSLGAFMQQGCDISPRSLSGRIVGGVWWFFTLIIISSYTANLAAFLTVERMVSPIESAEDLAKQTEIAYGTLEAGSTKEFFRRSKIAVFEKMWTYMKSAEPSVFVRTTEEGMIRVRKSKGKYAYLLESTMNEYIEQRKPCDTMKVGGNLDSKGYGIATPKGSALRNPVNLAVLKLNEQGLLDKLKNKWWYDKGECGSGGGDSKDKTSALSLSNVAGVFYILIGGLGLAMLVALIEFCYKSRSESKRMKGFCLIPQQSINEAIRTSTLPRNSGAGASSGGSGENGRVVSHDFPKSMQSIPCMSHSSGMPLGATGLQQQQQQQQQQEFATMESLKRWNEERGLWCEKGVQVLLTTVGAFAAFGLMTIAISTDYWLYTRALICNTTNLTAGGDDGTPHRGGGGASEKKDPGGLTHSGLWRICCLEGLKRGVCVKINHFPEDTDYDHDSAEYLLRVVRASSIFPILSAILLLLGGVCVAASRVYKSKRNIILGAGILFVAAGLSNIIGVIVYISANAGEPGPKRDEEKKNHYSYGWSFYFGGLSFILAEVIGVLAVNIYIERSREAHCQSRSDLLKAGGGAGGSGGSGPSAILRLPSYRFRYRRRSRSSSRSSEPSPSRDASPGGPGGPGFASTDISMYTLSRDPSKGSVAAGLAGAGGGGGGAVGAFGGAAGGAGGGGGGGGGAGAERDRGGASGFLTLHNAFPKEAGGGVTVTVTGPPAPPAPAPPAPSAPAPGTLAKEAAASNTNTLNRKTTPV

In the case of `CCc1nc2c(F)cc(C(F)(F)F)c(-c3cc(Cl)c4[nH]ncc4c3)n2n1` [Example 31, 5-(7-Chloro-1H-indazol-5-yl)-2-ethyl-8-fluoro-6-(trifluoromethyl)-[1,2,4]triazolo[1,5-a]pyridine], the IC50 is 1.26 nM. Regarding `CCc1nc2c(F)cc(C(F)(F)F)c(-c3cc(Cl)c4c(c3)CC(=O)N4)n2n1` [Example 32, 7-Chloro-5-[2-ethyl-8-fluoro-6-(trifluoromethyl)-[1,2,4]triazolo[1,5-a]pyridin-5-yl]indolin-2-one], the IC50 was 2 nM. For the compound `Cc1cc(-c2c(C(F)(F)F)cc(F)c3nc(C4CC4)nn23)cc2cn[nH]c12` [Example 33, 2-Cyclopropyl-8-fluoro-5-(7-methyl-1H-indazol-5-yl)-6-(trifluoromethyl)-[1,2,4]triazolo[1,5-a]pyridine], the IC50 was 0.2 nM. Consider `CC(C)c1nc2c(F)cc(C(F)(F)F)c(-c3cc(Cl)c4[nH]ncc4c3)n2n1` [Example 34, 5-(7-Chloro-1H-indazol-5-yl)-8-fluoro-2-isopropyl-6-(trifluoromethyl)-[1,2,4]triazolo[1,5-a]pyridine], for which the IC50 was 0.316 nM. The result for `CCc1nc2c(C)cc(C(F)(F)F)c(-c3cc(Cl)c4[nH]ncc4c3)n2n1` [Example 35, 5-(7-Chloro-1H-indazol-5-yl)-2-ethyl-8-methyl-6-(trifluoromethyl)-[1,2,4]triazolo[1,5-]pyridine] reads 0.398 nM; that for `CC(C)c1nc2ccc(C(F)(F)F)c(-c3cc(Cl)c4[nH]ncc4c3)n2n1` [Example 36, 5-(7-Chloro-1H-indazol-5-yl)-2-isopropyl-6-(trifluoromethyl)-[1,2,4]triazolo[1,5-a]pyridine], 0.0794 nM. Next, `Cc1cc(-c2c(C(F)(F)F)ccc3nc(C(C)C)nn23)cc2cn[nH]c12` [Example 37, 2-Isopropyl-5-(7-methyl-1H-indazol-5-yl)-6-(trifluoromethyl)-[1,2,4]triazolo[1,5-a]pyridine]: 0.316 nM; `FC(F)(F)c1ccc2nc(C3CC3)nn2c1-c1cc(Cl)c2[nH]ncc2c1` [Example 38, 5-(7-Chloro-1H-indazol-5-yl)-2-cyclopropyl-6-(trifluoromethyl)-[1,2,4]triazolo[1,5-a]pyridine]: 0.126 nM. On to `Cc1cc(-c2c(C(F)(F)F)ccc3nc(C4CC4)nn23)cc2cn[nH]c12` [Example 39, 2-Cyclopropyl-5-(7-methyl-1H-indazol-5-yl)-6-(trifluoromethyl)-[1,2,4]triazolo[1,5-a]pyridine], for which the IC50 was 0.316 nM. The result for `O=C1Cc2cc(-c3c(C(F)(F)F)ccc4nc(C5CC5)nn34)cc(Cl)c2N1` [Example 40, 7-Chloro-5-(2-cyclopropyl-6-(trifluoromethyl)-[1,2,4]triazolo[1,5-a]pyridin-5-yl)indolin-2-one] reads 0.398 nM; that for `Cc1cc(-c2c(C(F)(F)F)ccc3nc(C4CC4)nn23)cc2c1NC(=O)C2` [Example 41, 5-(2-Cyclopropyl-6-(trifluoromethyl)-[1,2,4]triazolo[1,5-a]pyridin-5-yl)-7-methylindolin-2-one], 0.631 nM. The result for `CC(F)(F)c1nc2ccc(C(F)(F)F)c(-c3cc(Cl)c4[nH]ncc4c3)n2n1` [Example 42, 5-(7-Chloro-1H-indazol-5-yl)-2-(1,1-difluoroethyl)-6-(trifluoromethyl)-[1,2,4]triazolo[1,5-a]pyridine] reads 0.1 nM. Next, `COc1nc2ccc(C(F)(F)F)c(-c3cc(Cl)c4[nH]ncc4c3)n2n1` [Example 43, 5-(7-Chloro-1H-indazol-5-yl)-2-methoxy-6-(trifluoromethyl)-[1,2,4]triazolo[1,5-a]pyridine]: 3.16 nM.

As for `CCc1nc2ccc(C(F)F)c(-c3cc(Cl)c4[nH]ncc4c3)n2n1` [Example 44, 5-(7-Chloro-1H-indazol-5-yl)-6-(difluoromethyl)-2-ethyl-[1,2,4]triazolo[1,5-a]pyridine], the IC50 was 0.398 nM.

`CCc1nc2ccc(C(F)F)c(-c3cc(C)c4[nH]ncc4c3)n2n1` [Example 45, 6-(Difluoromethyl)-2-ethyl-5-(7-methyl-1H-indazol-5-yl)-[1,2,4]triazolo[1,5-a]pyridine]: the half-inhibitory concentration (IC50) was 1.26 nM.

Consider `CCc1nc2ccc(C(F)F)c(-c3cc(Cl)c4c(c3)CC(=O)N4)n2n1` [Example 46, 7-Chloro-5-(6-(difluoromethyl)-2-ethyl-[1,2,4]triazolo[1,5-a]pyridin-5-yl)indolin-2-one], for which the IC50 was 3.98 nM. The result for `CCc1nc2ccc(C(F)F)c(-c3cc(C)c4c(c3)CC(=O)N4)n2n1` [Example 47, 5-(6-(Difluoromethyl)-2-ethyl-[1,2,4]triazolo[1,5-a]pyridin-5-yl)-7-methylindolin-2-one] reads 3.98 nM; that for `FC(F)c1ccc2nc(C3CC3)nn2c1-c1cc(Cl)c2[nH]ncc2c1` [Example 48, 5-(7-Chloro-1H-indazol-5-yl)-2-cyclopropyl-6-(difluoromethyl)-[1,2,4]triazolo[1,5-a]pyridine], 0.2 nM. The result for `Cc1cc(-c2c(C(F)F)ccc3nc(C4CC4)nn23)cc2cn[nH]c12` [Example 49, 2-Cyclopropyl-6-(difluoromethyl)-5-(7-methyl-1H-indazol-5-yl)-[1,2,4]triazolo[1,5-a]pyridine] reads 0.794 nM; that for `COc1ccc2nc(C(F)(F)F)nn2c1-c1cc(Cl)c2[nH]ncc2c1` [Example 50, 5-(7-Chloro-1H-indazol-5-yl)-6-methoxy-2-(trifluoromethyl)-[1,2,4]triazolo[1,5-a]pyridine], 1 nM. On to `COc1ccc2nc(C(F)(F)F)nn2c1-c1cc(C)c2[nH]ncc2c1` [Example 51, 6-Methoxy-5-(7-methyl-1H-indazol-5-yl)-2-(trifluoromethyl)-[1,2,4]triazolo[1,5-a]pyridine], for which the IC50 is 5.01 nM.

Take `CCc1ccc2nc(C(F)(F)F)nn2c1-c1cc(C)c2[nH]ncc2c1` [Example 52, 6-Ethyl-5-(7-methyl-1H-indazol-5-yl)-2-(trifluoromethyl)-[1,2,4]triazolo[1,5-a]pyridine]: the IC50 is 0.501 nM.

With `CC(F)(F)c1ccc2nc(C(F)(F)F)nn2c1-c1cc(Cl)c2[nH]ncc2c1` [Example 53, 5-(7-Chloro-1H-indazol-5-yl)-6-(1,1-difluoroethyl)-2-(trifluoromethyl)-[1,2,4]triazolo[1,5-a]pyridine], the IC50 is 0.0501 nM. The result for `O=c1[nH]c2ccc(-c3c(C(F)(F)F)ccc4nc(C(F)F)nn34)cc2s1` [Example 54, 6-(2-(Difluoromethyl)-6-(trifluoromethyl)-[1,2,4]triazolo[1,5-a]pyridin-5-yl)benzo[d]thiazol-2(3H)-one] reads 0.794 nM. Turning to `Cc1cc(-c2c(-c3ccc(F)cc3)ccc3nc(C(F)(F)F)nn23)cc2cn[nH]c12` [Example 55, 6-(4-Fluorophenyl)-5-(7-methyl-1H-indazol-5-yl)-2-(trifluoromethyl)-[1,2,4]triazolo[1,5-a]pyridine], the concentration for half-maximal inhibition (IC50) is 0.0398 nM. The result for `Fc1ccc(-c2ccc3nc(C(F)(F)F)nn3c2-c2ccc3[nH]ncc3c2)cc1` [Example 56, 6-(4-Fluorophenyl)-5-(1H-indazol-5-yl)-2-(trifluoromethyl)-[1,2,4]triazolo[1,5-a]pyridine] reads 1.26 nM.

As a reminder, the IC50 is the concentration that inhibits the measured activity by half.

For the origin of these results see patent US10087185B2 (Janssen Pharmaceutica NV, priority 2016, dated 2018).
